A short description of data set [1]: Hepatocytes stability, mouse. The data set is classed as in vitro ADME.
The nature of data set [2]: Hepatocytes stability, rat. The data set is classed as in vitro ADME.
The nature of data set [3]: Liver microsome stability, rat. The data set is classed as in vitro ADME. The settings on record: liver microsomes.
The nature of data set [4]: Liver microsome stability, human. The class given is in vitro ADME. The following applies: liver microsomes. On the technique in general: Liver microsomes are vesicles of endoplasmic reticulum, rich in cytochrome P450 enzymes.
Data set [5] in a line: Hepatocytes stability, human. The class given is in vitro ADME.
Data set [6] can be described thus: Liver microsome stability, mouse. The settings on record: liver microsomes. The class given is in vitro ADME.
A short description of a further data set: Mouse PK. The class given is in vivo. The following applies: iv 3 mg/kg.
A further data set in a line: Rat PK. The class given is in vivo. The following applies: iv 2 mg/kg.
The next data set concerns the target SARS-CoV-2 M^pro (Severe acute respiratory syndrome coronavirus 2, UniProt P0DTD1). Nature of the data set: SARS-CoV-2 Mpro enzymatic assay. The class given is biochemical.
The next data set deals with HCoV-OC43. The data set is classed as in vivo. The settings on record: intraperitoneal injection, 7 days, 6 neonatal mice per group.
Data set [7] can be described thus: Predicted human clearance by simple allometric scaling. The following applies: simple allometric scaling method.
[8] abbreviates: vehicle 40% PEG400 + 60 %saline.

For the compound `CC(C)(C)[C@H](NC(=O)C(F)(F)F)C(=O)N1C[C@@H]2CCC[C@@H]2[C@H]1C(=O)N[C@H](C#N)C[C@@H]1CCNC1=O` [2a], the CLint scaled in data set [1] is 435 mL/min/kg; in data set [2], 32 mL/min/kg; in data set [3], less than 17.3 mL/min/kg; in [4], 13 mL/min/kg; in [5], less than 17.8 mL/min/kg; in [6] it was 262 mL/min/kg. The CL in “Mouse PK” (vehicle saline) turned out to be 79.3 mL min^−1 kg^−[1]; in the data set “Rat PK” (vehicle saline) it was 75.4 mL min^−1 kg^−[1].
Take `N#C[C@H](C[C@@H]1CCNC1=O)NC(=O)[C@@H]1[C@H]2CCC[C@H]2CN1C(=O)[C@@H](NC(=O)C(F)(F)F)C1CCCCC1` [3a]: the CLint scaled in [1] was 455 mL/min/kg; in [2], 51 mL/min/kg; in data set [3], less than 17.3 mL/min/kg; in data set [4] it was 19 mL/min/kg; in data set [5] it was less than 17.8 mL/min/kg; in [6], 215 mL/min/kg. The results for the CL in the data set “Mouse PK” (vehicle saline) and in “Rat PK” (vehicle saline) were 92.2 mL min^−1 kg^−[1] and 62.7 mL min^−1 kg^−[1], respectively.
Take `N#C[C@H](C[C@@H]1CCNC1=O)NC(=O)[C@@H]1[C@H]2CCC[C@H]2CN1C(=O)[C@@H](NC(=O)C(F)(F)F)c1ccc(F)cc1` [3b]: the “Fold weaker in enzymatic potency relative to 2a” value at SARS-CoV-2 M^pro (relative to 2a) turned out to be 4 fold.
On to `CC(=O)N[C@H](C(=O)N1C[C@@H]2CCC[C@@H]2[C@H]1C(=O)N[C@H](C#N)C[C@@H]1CCNC1=O)C1CCCCC1` [3c], for which the “Folds loss in enzymatic and cell potencies” value on SARS-CoV-2 M^pro (P3 cap modifications, enzymatic and cell potencies) is recorded as 3–10 folds.
Regarding `CC(C)(C)NC(=O)C(=O)[C@H](C[C@@H]1CCNC1=O)NC(=O)[C@@H]1[C@H]2CCC[C@H]2CN1C(=O)[C@@H](NC(=O)C(F)(F)F)C1CCCCC1` [4a], the CLint scaled is 1020 mL/min/kg in data set [1]; 42 mL/min/kg in data set [2]; 25 mL/min/kg in data set [3]; less than 17.8 mL/min/kg in data set [5]; 212 mL/min/kg in data set [6]. For the same compound, the “Mice survived at day 14” value with HCoV-OC43 (high dosing group) was 6/6. The Mice survived result with HCoV-OC43 (low dosing group) is “four out of six”. For the same compound, in [7], the Predicted human clearance result is “about 2.9 ml/min/kg”. Also, the CL turned out to be 2.50 mL min^−1 kg^−[1] in “Mouse PK” (setting [8]) and 2.55 mL min^−1 kg^−[1] in the data set “Rat PK” (setting [8]).
Consider `CC(C)(C)NC(=O)C(=O)[C@H](C[C@@H]1CCNC1=O)NC(=O)[C@@H]1[C@H]2CCC[C@H]2CN1C(=O)[C@@H](NC(=O)C(F)(F)F)C1CCCC1` [4c], for which the CL in the data set “Mouse PK” (setting [8]) came to 5.06 mL min^−1 kg^−[1].
As to `CC(C)(C)[C@H](NC(=O)C(F)(F)F)C(=O)N1C[C@H]2[C@@H]([C@H]1C(=O)N[C@H](C#N)C[C@@H]1CCNC1=O)C2(C)C` [nirmatrelvir, reference compound], the CLint scaled is 169 mL/min/kg in [1]; less than 29.9 mL/min/kg in data set [2]; less than 17.3 mL/min/kg in data set [3]; 29 mL/min/kg in [4]; less than 17.8 mL/min/kg in [5]; 329 mL/min/kg in [6]. Besides, the figures for the CL in the data set “Mouse PK” (vehicle saline) and in “Rat PK” (vehicle saline) were 30.2 mL min^−1 kg^−[1] and 42.0 mL min^−1 kg^−[1], respectively.

The term CLint scaled denotes a measure of how fast metabolising enzymes remove a compound, apart from limits set by blood flow. The low end stands for slow turnover, the high end for rapid turnover.
